From US20070049592A1, “Bis-aryl urea compounds and methods of use” (priority 2005, published 2007) come the findings set out here.

pIC50: −log10 of the molar value.

The test system of assay [1] is production of TNF by monocytes activated with bacterial lipopolysaccharide (LPS). Nature of the assay: Lipopolysaccharide-activated monocyte TNF production assay. It counts as cell-based. To be noted: Homo sapiens, as a determination of p38 activity, read-out: IC50 values in the monocyte assay (LPS induced TNF release). Here is the method: Test compounds were evaluated in vitro for the ability to inhibit the production of TNF by monocytes activated with bacterial lipopolysaccharide (LPS). Fresh residual source leukocytes (a byproduct of plateletpheresis) were obtained from a local blood bank, and peripheral blood mononuclear cells (PBMCs) were isolated by density gradient centrifugation on Ficol-Paque Plus (Pharmacia). PBMCs were suspended at 2×10^6/ml in DMEM supplemented to contain 2% FCS, 10 mM, 0.3 mg/ml […], 100 U/ml penicillin G and […] streptomycin sulfate (complete media). Cells were plated into Falcon flat bottom, 96 well culture plates (200 μl/well) and cultured overnight at 37° C. and 6% CO2. Non-adherent cells were removed by washing with 200 μl/well of fresh medium. Wells containing adherent cells (˜70% monocytes) were replenished with 100 μl of fresh medium.
Test compounds were dissolved in […]. Compound stock solutions were prepared to an initial concentration of […]. Stocks were diluted initially to 20-200 μM in complete media. Nine two-fold serial dilutions of each compound were then prepared in complete medium.
One hundred microliters of each test compound dilution were added to microtiter wells containing adherent monocytes and 100 μl complete medium. Monocytes were cultured with test compounds for 60 min at which time 25 μl of complete medium containing 30 ng/ml lipopolysaccharide from E. coli K532 were added to each well. Cells were cultured an additional 4 hrs. Culture supernatants were then removed and TNF presence in the supernatants was quantified using an ELISA.
Flat bottom, 96 well Corning High Binding ELISA plates were coated overnight (4° C.) with 150 μL/well of 3 μg/ml murine anti-human TNF-α MAb (R&D Systems #MAB210). Wells were then blocked for 1 hr at room temperature with 200 μL/well of CaCl2-free ELISA buffer supplemented to contain 20 mg/ml BSA (standard ELISA buffer: […], 150 mM NaCl, 2 mM CaCl2, 0.15 mM thimerosal, pH 7.4). Plates were washed and replenished with 100 μl of test supernatants (diluted 1:3) or standards. Standards consisted of eleven 1.5-fold serial dilutions from a stock of 1 ng/ml recombinant human TNF (R&D Systems). Plates were incubated at room temperature for 1 hr on orbital shaker (300 rpm), washed and replenished with 100 μl/well of 0.5 μg/ml goat anti-human TNF-α (R&D systems #AB-210-NA) biotinylated at a 4:1 ratio. Plates were incubated for 40 min, washed and replenished with 100 μl/well of alkaline phosphatase-conjugated streptavidin (Jackson ImmunoResearch #016-050-084) at 0.02 μg/ml. Plates were incubated 30 min, washed and replenished with 200 μl/well of 1 mg/ml of p-nitrophenyl phosphate. After 30 min, plates were read at 405 nm on a Vmax plate reader.
Standard curve data were fit to a second order polynomial and unknown TNF-α concentrations determined from their OD by solving this equation for concentration. TNF concentrations were then plotted vs. test compound concentration using a second order polynomial. This equation was then used to calculate the concentration of test compounds causing a 50% reduction in TNF production.

The test system of assay [2] is Human Umbilical Vein Endothelial cells. Nature of the assay: HUVEC proliferation assay (VEGF). The assay is classed as cell-based. To be noted: VEGF-stimulated HUVEC proliferation. As for the experimental part:
Human Umbilical Vein Endothelial cells are purchased from Clonetics, Inc., as cryopreserved cells harvested from a pool of donors. These cells, at passage 1, are thawed and expanded in EBM-2 complete medium, until passage 2 or 3. The cells are trypsinized, washed in DMEM+10% FBS+antibiotics, and spun at 1000 rpm for 10 min. Prior to centrifugation of the cells, a small amount is collected for a cell count. After centrifugation, the medium is discarded, and the cells are resuspended in the appropriate volume of DMEM+10% FBS+antibiotics to achieve a concentration of 3×10^5 cells/mL. Another cell count is performed to confirm the cell concentration. The cells are diluted to 3×10^4 cells/mL in DMEM+10% FBS+antibiotics, and 100 μL of cells are added to a 96-well plate. The cells are incubated at 37° C. for 22 h.
Prior to the completion of the incubation period, compound dilutions are prepared. Five-point, five-fold serial dilutions are prepared in DMSO, at concentrations 400-fold greater than the final concentrations desired. 2.5 μL of each compound dilution are diluted further in a total of 1 mL DMEM+10% FBS+antibiotics (400× dilution). Medium containing 0.25% DMSO is also prepared for the 0 μM compound sample. At the 22 h timepoint, the medium is removed from the cells, and 100 μL of each compound dilution is added. The cells are incubated at 37° C. for 2-3 h.
During the compound pre-incubation period, the growth factors are diluted to the appropriate concentrations. Solutions of DMEM+10% FBS+antibiotics, containing either VEGF or bFGF at the following concentrations: 50, 10, 2, 0.4, 0.08, and 0 ng/mL are prepared. For the compound-treated cells, solutions of VEGF at 550 ng/mL or bFGF at 220 ng/mL for 50 ng/mL or 20 ng/mL final concentrations, respectively, are prepared since 10 μL of each will be added to the cells (110 μL final volume). At the appropriate time after adding the compounds, the growth factors are added. VEGF is added to one set of plates, while bFGF is added to another set of plates. For the growth factor control curves, the media on wells B4-G6 of plates 1 and 2 are replaced with media containing VEGF or bFGF at the varying concentrations (50-0 ng/mL). The cells are incubated at 37° C. for an additional 72 h.
At the completion of the 72 h incubation period, the medium is removed, and the cells are washed twice with PBS. After the second wash with PBS, the plates are tapped gently to remove excess PBS, and the cells are placed at −70° C. for at least 30 min. The cells are thawed and analyzed using the CyQuant fluorescent dye (Molecular Probes C-7026), following the manufacturer's recommendations. The plates are read on a Victor/Wallac 1420 workstation at 485 nm/530 nm (excitation/emission). Raw data is collected and analyzed using a 4-parameter fit equation in XLFit. IC50 values are then determined.

As a reminder, the pIC50 is the negative decadic logarithm of the IC50, by convention in mol/L.

For the compound `CNc1cc(N(C)C(=O)Nc2cc(C(=O)Nc3cccc(C(F)(F)F)c3)ccc2C)ncn1` [Example 16, ′4-methyl-3-(((methyl(6-(methylamino)-4-pyrimidinyl)amino)carbonyl)amino)-N-(3-(trifluoromethyl)phenyl) benzamide], the negative-log IC50 (pIC50) is at least 5.30 in assay [1] and over 5.30 in assay [2].
Consider `CNc1cc(N(C)C(=O)Nc2cc(C(=O)Nc3cccc(C(C)C)c3)ccc2C)ncn1` [Example 17, 4-methyl-N-(3-(1-methylethyl)phenyl)-3-(((methyl(6-(methylamino)-4-pyrimidinyl)amino)carbonyl)amino) benzamide], for which the negative-log IC50 (pIC50) in assay [1] is at least 5.30; in assay [2] it was over 5.30.
Regarding `CNc1cc(N(C)C(=O)Nc2cc(C(=O)Nc3cc(OC)cc(C(F)(F)F)c3)ccc2C)ncn1` [Example 18, 4-methyl-3-(((methyl(6-(methylamino)-4-pyrimidinyl)amino)carbonyl)amino)-N-(3-(methyloxy)-5-(trifluoromethyl)phenyl) benzamide], the figures for the pIC50 in assay [1] and in assay [2] were at least 5.30 and over 5.30, respectively.
On to `CNc1cc(N(C)C(=O)Nc2cc(C(=O)Nc3cccc(C(F)(F)F)c3C)ccc2C)ncn1` [Example 20, 4-methyl-3-(((methyl(6-(methylamino)-4-pyrimidinyl)amino)carbonyl)amino)-N-(2-methyl-3-(trifluoromethyl)phenyl)benzamide], for which the pIC50 in assay [1] is at least 5.30; in assay [2], over 5.30.
In the case of `CNc1cc(N(C)C(=O)Nc2cc(C(=O)Nc3ccc4ccccc4c3)ccc2C)ncn1` [Example 23, 4-methyl-3-(((methyl(6-(methylamino)-4-pyrimidinyl)amino)carbonyl)amino)-N-(2-naphthalenyl) benzamide], the values for the negative-log IC50 (pIC50) in assay [1] and in assay [2] were at least 5.30 and over 5.30, respectively.
As for `CNc1cc(N(C)C(=O)Nc2cc(C(=O)Nc3cccc(C(F)(F)F)c3F)ccc2C)ncn1` [Example 24, N-(2-fluoro-3-(trifluoromethyl)phenyl)-4-methyl-3-((methyl(6-(methylamino)-4-pyrimidinyl)amino)carbonylamino)benzamide], the figures for the pIC50 in assay [1] and in assay [2] were at least 5.30 and over 5.30, respectively.
For `CNc1cc(N(C)C(=O)Nc2cc(C(=O)Nc3ccc(C(C)(C)C)cc3)ccc2C)ncn1` [Example 25] the same measures were at least 5.30 and over 5.30.
Turning to `CNc1ncnc(N(C)C(=O)Nc2cc(C(=O)Nc3ccc4ccccc4c3)ccc2C)n1` [Example 30, 4-methyl-3-(((methyl(4-(methylamino)-1,3,5-triazin-2-yl)amino)carbonyl)amino)-N-(2-naphthalenyl) benzamide], the negative-log IC50 (pIC50) is at least 5.30 in assay [1] and over 5.30 in assay [2].
In the case of `CNc1cc(N(C)C(=O)Nc2cc(C(=O)Nc3cccc(-c4ccccc4)c3)ccc2C)ncn1` [Example 31, N-(1,1′-biphenyl-3-yl)-4-methyl-3-(((methyl(6-(methylamino)-4-pyrimidinyl)amino)carbonyl)amino)benzamide], the negative-log IC50 (pIC50) in assay [1] was at least 5.30; in assay [2] it was over 5.30.
As for `CNc1cc(N(C)C(=O)Nc2cc(C(=O)Nc3ccc(C(F)(F)F)cc3)ccc2C)ncn1` [Example 32, 4-methyl-3-(((methyl(6-(methylamino)-4-pyrimidinyl)amino)carbonyl)amino)-N-(4-(trifluoromethyl)phenyl)benzamide], the negative logarithm of the IC50 (pIC50) in assay [1] was at least 5.30; in assay [2], over 5.30.
